# Non-standard residues stand in square brackets, D forms with d. Residues, ends and D or L forms follow the SMILES beside them. No end group written: not given here. PEG3 = NCCOCCOCCOCCC(=O)O; AEEA = NCCOCCOCC(=O)O
# How the values were obtained:
# [1] = test system: Salmonella typhi ATCC14028; format: cell-based
# Klebsiella pneumoniae = format: cell-based
# human erythrocytes = format: cell-based
# Excerpt: The detergent Tween was used as a positive control, causing 100% lysis of RBCs.
# β-Gal = β-Gal (Escherichia coli, UniProt P00722); conditions: for binding to β-Gal on blot: 250 nM biotinylated peptide, 1 h, complete BL21 cell lysate
# Chain of β-Gal (P00722 2-1024 with the stated changes limits assumed): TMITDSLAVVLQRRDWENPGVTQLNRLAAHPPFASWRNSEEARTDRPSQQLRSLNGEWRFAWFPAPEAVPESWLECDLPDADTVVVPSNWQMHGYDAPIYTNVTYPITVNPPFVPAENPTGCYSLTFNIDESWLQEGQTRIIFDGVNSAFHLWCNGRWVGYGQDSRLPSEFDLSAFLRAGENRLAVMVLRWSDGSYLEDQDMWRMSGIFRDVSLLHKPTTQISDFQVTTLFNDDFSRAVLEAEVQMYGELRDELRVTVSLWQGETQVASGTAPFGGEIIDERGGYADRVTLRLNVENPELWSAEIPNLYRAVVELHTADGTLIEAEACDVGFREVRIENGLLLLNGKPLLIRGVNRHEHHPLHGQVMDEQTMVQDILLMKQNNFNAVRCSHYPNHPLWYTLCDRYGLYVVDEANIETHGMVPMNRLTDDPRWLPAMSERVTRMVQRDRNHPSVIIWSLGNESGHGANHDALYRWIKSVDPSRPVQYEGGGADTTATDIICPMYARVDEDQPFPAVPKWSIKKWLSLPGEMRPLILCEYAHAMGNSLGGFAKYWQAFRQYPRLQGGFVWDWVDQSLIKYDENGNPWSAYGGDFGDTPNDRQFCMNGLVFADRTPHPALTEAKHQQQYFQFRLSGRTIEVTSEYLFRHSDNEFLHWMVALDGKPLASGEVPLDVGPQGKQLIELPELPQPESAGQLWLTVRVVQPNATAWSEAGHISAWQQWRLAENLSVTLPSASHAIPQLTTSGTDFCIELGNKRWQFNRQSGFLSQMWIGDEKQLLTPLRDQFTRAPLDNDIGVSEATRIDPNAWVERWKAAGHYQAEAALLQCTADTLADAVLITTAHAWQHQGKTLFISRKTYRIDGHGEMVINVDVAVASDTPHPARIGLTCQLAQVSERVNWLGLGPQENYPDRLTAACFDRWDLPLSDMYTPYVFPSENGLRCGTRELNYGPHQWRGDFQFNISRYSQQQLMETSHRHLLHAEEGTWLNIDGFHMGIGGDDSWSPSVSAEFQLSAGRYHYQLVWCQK
# Procedure: A 0.4 ml suspension of BL21 cells (OD600 nm ^˜1.2) expressing β-Gal (grown under induced conditions) was centrifuged at 5000 g for 10 min at room temperature. The supernatant was discarded and 0.8 ml of bacterial protein extraction reagent (B-PER, Thermo scientific) containing protease inhibitor was added to the bacterial pellet and vortex mixed for 30 s in order to lyse the cells. To 21 μl of the complete BL21 cell lysate 5 μl of 5× SDS sample loading buffer (Fermentas) was added and heated at 99° C. for 3 min. This mixture (26 μl per well) was loaded in a 10-well NuPage 4-12% Bis-Tris gel and the proteins were separated under denaturing conditions. The separated proteins were then transferred to a nitrocellulose membrane and blocked overnight with 1% BSA in phosphate buffer saline, 0.05% Tween 20, pH 7.4 (PBS-T) at 4° C. Each lane of the membrane was cut out and separately incubated with either rabbit anti-β-Gal antibody either biotinylated Tango 1, either biotinylated Tango 2, or the biotinylated off-target peptide or either a biotinylated Tango 2 mutant peptide.
# This was followed by 3×10 min wash with PBS-T and finally rinsed in deionised water for 10 min. The membrane strip was exposed to chemiluminescence HRP substrate reagent (SuperSignal West Femto Maximum Sensitivity Substrate, Thermo Fisher Scientific) and target protein visualized using Bio-Rad ChemiDoc XRS imaging system.
# A stock solution (10 μM) of each of the biotinylated peptides was prepared in 100% DMSO. The peptide stock was diluted (1/400) in 10 mM MES buffer, 100 mM Trehalose, 0.05% Tween 20, pH 5.5 to obtain a final concentration of the peptide of 25 nM. The freshly prepared peptide solution was immediately added to the membrane strip and gently agitated at room temperature. After 15 min the peptide solution was decanted and the membrane strip was washed 3×10 min with 10 mM MES buffer, 0.05% Tween 20, pH 5.5 and further processed as described herein before.
# Procedure for B. cereus: (§1) Bacteria were grown in a shaking incubator at 37° C. and 160rpm in 50 ml BHI , using individual colonies retrieved from a fresh overnight TSA-sheep blood plate. The cultures were grown to a density of approximately 1×10^8cells/ml and then diluted to 5×10^5 cells/ml in CAMHB (Mc Farland 0.5). Each well contained 100p.I (50p.I of peptide containing MHB plus 50 μl inoculum). The final cell density was 1×10^5 to 5×10^5/ml. After addition of the cell suspension, plates were incubated at 37° C. for 18 to 24 hours. The optical density at 590 nm (OD590) of each well was measured after 5 seconds of shaking the plate using Perkin Elmer spectrophotometer (1420 Multilabel Counter Vicotr 3). […] Each well, where no growth was observed, was also plated on TSA-sheep blood agar plates, incubated at 37° C. overnight and visually inspected.
# (§2) A microbroth dilution method was used with twofold serial dilutions in CAMHB (according to EMEA guidelines) was used for screening of peptide activity, with concentrations ranging from 0.3 μg/mIto 200 μg/ml.
# Procedure for Corynebacterium: as §1, §2
# Procedure for E. coli: as §1, §2
# Procedure for E. faecalis: as §1, §2
# Procedure for Nocardia asteroides: as §1, §2
# Procedure for S. aureus: as §1, §2
# Procedure for S. epidermidis: as §1, §2
# Procedure for S. hominis: as §1, §2
Compound,Minimum inhibitory concentrations MIC90 [1] [µg/mL],Minimum inhibitory concentrations MIC90 (Klebsiella pneumoniae) [µg/mL],Minimum inhibitory concentrations MIC90 (Nocardia asteroides) [µg/mL],Minimum inhibitory concentrations MIC90 (S. hominis) [µg/mL],Minimum inhibitory concentrations MIC90 (E. coli) [µg/mL],Minimum inhibitory concentrations MIC90 (E. faecalis) [µg/mL],Minimum inhibitory concentrations MIC90 (B. cereus) [µg/mL],Minimum inhibitory concentrations MIC90 (S. epidermidis) [µg/mL],other results
CC[C@@H](C)[C@@H](NC(=O)[C@H](N)CCCNC(=N)N)C(=O)N[C@H](CC(C)C)C(=O)N[C@H](CC(C)C)C(=O)NCC(=O)N[C@H](CC(C)C)C(=O)N[C@@H](C(=O)N[C@H](CCCNC(=N)N)C(=O)N[C@H](CCCNC(=N)N)C(=O)NCC(=O)N[C@H](CO)C(=O)N[C@H](CCCNC(=N)N)C(=O)N[C@@H](C(=O)N[C@H](CC(C)C)C(=O)N[C@H](CC(C)C)C(=O)NCC(=O)N[C@H](CC(C)C)C(=O)N[C@@H](C(=O)N[C@H](CCCNC(=N)N)C(=O)N[C@H](CCCNC(=N)N)C(=O)O)[C@H](C)CC)[C@H](C)CC)[C@H](C)CC [DAA] (H-[dR][dI][dL][dL]G[dL][dI][dR][dR]G[dS][dR][dI][dL][dL]G[dL][dI][dR][dR]-OH; N-terminus and C-terminus assumed),100,25,>200,1.5,25,6,6,1.5,Minimum inhibitory concentrations MIC90 (Corynebacterium): >200 µg/mL
CC[C@H](C)[C@H](NC(=O)[C@H](CC(C)C)NC(=O)CNC(=O)[C@H](CC(C)C)NC(=O)[C@H](CC(C)C)NC(=O)[C@@H](NC(=O)[C@H](CCCNC(=N)N)NC(=O)[C@H](CO)NC(=O)CNC(=O)[C@H](CCCNC(=N)N)NC(=O)[C@H](CCCNC(=N)N)NC(=O)[C@@H](NC(=O)[C@H](CC(C)C)NC(=O)CNC(=O)[C@H](CC(C)C)NC(=O)[C@H](CC(C)C)NC(=O)[C@@H](NC(=O)[C@H](CCCNC(=N)N)NC(=O)COCCOCCN)[C@@H](C)CC)[C@@H](C)CC)[C@@H](C)CC)C(=O)N[C@@H](CCCNC(=N)N)C(=O)N[C@@H](CCCNC(=N)N)C(=O)O [P2153] (H-[AEEA]RILLGLIRRGSRILLGLIRR-OH),>200,50,6,3,25,25,6,12.5,–
CC[C@H](C)[C@H](NC(=O)[C@H](CC(C)C)NC(=O)CNC(=O)[C@H](CC(C)C)NC(=O)[C@H](CC(C)C)NC(=O)[C@@H](NC(=O)[C@H](CCCNC(=N)N)NC(=O)[C@H](CO)NC(=O)CNC(=O)[C@H](CCCNC(=N)N)NC(=O)[C@H](CCCNC(=N)N)NC(=O)[C@@H](NC(=O)[C@H](CC(C)C)NC(=O)CNC(=O)[C@H](CC(C)C)NC(=O)[C@H](CC(C)C)NC(=O)[C@@H](NC(=O)[C@H](CCCNC(=N)N)NC(=O)CCOCCOCCOCCN)[C@@H](C)CC)[C@@H](C)CC)[C@@H](C)CC)C(=O)N[C@@H](CCCNC(=N)N)C(=O)N[C@@H](CCCNC(=N)N)C(=O)O [P2154] (H-[PEG3]RILLGLIRRGSRILLGLIRR-OH),>200,100,6,3,50,12.5,12.5,12.5,–
CC[C@H](C)[C@H](NC(=O)[C@H](CC(C)C)NC(=O)CNC(=O)[C@H](CC(C)C)NC(=O)[C@H](CC(C)C)NC(=O)[C@@H](NC(=O)[C@H](CCCNC(=N)N)NC(=O)COCCOCCNC(=O)[C@H](CCCNC(=N)N)NC(=O)[C@H](CCCNC(=N)N)NC(=O)[C@@H](NC(=O)[C@H](CC(C)C)NC(=O)CNC(=O)[C@H](CC(C)C)NC(=O)[C@H](CC(C)C)NC(=O)[C@@H](NC(=O)[C@@H](N)CCCNC(=N)N)[C@@H](C)CC)[C@@H](C)CC)[C@@H](C)CC)C(=O)N[C@@H](CCCNC(=N)N)C(=O)N[C@@H](CCCNC(=N)N)C(N)=O [P2175/P1] (H-RILLGLIRR[AEEA]RILLGLIRR-NH2),50,50,3,3,25,12.5,12.5,12.5,Minimum inhibitory concentrations MIC90 (Corynebacterium): >200 µg/mL
CC[C@H](C)[C@H](NC(=O)[C@H](CC(C)C)NC(=O)CNC(=O)[C@H](CC(C)C)NC(=O)[C@H](CC(C)C)NC(=O)[C@@H](NC(=O)[C@H](CCCNC(=N)N)NC(=O)COCCOCCNC(=O)[C@H](CCCNC(=N)N)NC(=O)[C@H](CCCNC(=N)N)NC(=O)[C@@H](NC(=O)[C@H](CC(C)C)NC(=O)CNC(=O)[C@H](CC(C)C)NC(=O)[C@H](CC(C)C)NC(=O)[C@@H](NC(=O)[C@@H](N)CCCNC(=N)N)[C@@H](C)CC)[C@@H](C)CC)[C@@H](C)CC)C(=O)N[C@@H](CCCNC(=N)N)C(=O)N[C@@H](CCCNC(=N)N)C(N)=O [P2175/P2] (H-RILLGLIRR[AEEA]RILLGLIRR-NH2),25,100,6,1.5,50,6,12.5,6,Minimum inhibitory concentrations MIC90 (Corynebacterium): >200 µg/mL
Ac-RILLGLIRRGSRILLGLIRR-NH2 [P2170/P1],100,>200,6,3,25,12.5,6,6,Minimum inhibitory concentrations MIC90 (S. aureus): 12.5 µg/mL; Minimum inhibitory concentrations MIC90 (Corynebacterium): >200 µg/mL
Ac-RILLGLIRRGSRILLGLIRR-NH2 [P2170/P2],100,>200,3,3,25,12.5,6,12.5,Minimum inhibitory concentrations MIC90 (S. aureus): 12.5 µg/mL; Minimum inhibitory concentrations MIC90 (Corynebacterium): 100 µg/mL
H-RILLGLIRRGSRILLGLIRR-OH [P2151],100,25,12.5,3,25,25,12.5,12.5,–
RFFIGLSRRGSRIQAYLYRR [Hit50A],–,–,–,–,–,–,–,–,MIC values against MRSA 326 (S. aureus): 50 µg/mL; MIC values against S.aureus ATCC 29213 (S. aureus): 100 µg/mL; MIC values against B.cereus ATCC (B. cereus): 50 µg/mL
RLFNFLKRGSRLFNFLKR [C29/Hit11],–,–,–,–,–,–,–,–,MIC values against MRSA 326 (S. aureus): 12.5 µg/mL; MIC values against S.aureus ATCC 29213 (S. aureus): 12.5 to 25 µg/mL; hemolytic activity (human erythrocytes): no significant hemolytic activity at clinically relevant concentrations; MIC values against Corynebacterium (Corynebacterium): 6 µg/mL; MIC values against B.cereus ATCC (B. cereus): 6 to 12.5 µg/mL
RRIIGIIARPPRVLVTLLRR [mtop_22],–,–,–,–,–,–,–,–,MIC value (S. aureus): <200 µg/mL; MIC value (S. epidermidis): 50 µg/mL
RRIILFILRPPRLILFLGRR [mtop_1],–,–,–,–,–,–,–,–,MIC value (S. aureus): 200 µg/mL; MIC value (S. epidermidis): 50 µg/mL
RRILGLIARPPRIAFVILRR [mtop_18],–,–,–,–,–,–,–,–,MIC value (S. aureus): <200 µg/mL; MIC value (S. epidermidis): 50 µg/mL
RRILLGLIRPPRTIIGLVRR [mtop_11],–,–,–,–,–,–,–,–,MIC value (S. aureus): >200 µg/mL; MIC value (S. epidermidis): 12.5 µg/mL
RRILLLIARPPRILLGAIRR [mtop_12],–,–,–,–,–,–,–,–,MIC value (S. aureus): >200 µg/mL; MIC value (S. epidermidis): 12.5 µg/mL
RRLLGLIIRPPRAIALTLRR [mtop_17],–,–,–,–,–,–,–,–,MIC value (S. aureus): 50 µg/mL; MIC value (S. epidermidis): 100 µg/mL
RRWVSMLLRRGSRWVSMLLRR [Hit14],–,–,–,–,–,–,–,–,MIC values against B.cereus ATCC (B. cereus): 100 µg/mL; MIC values against S.epidermidis ATCC 12228 (S. epidermidis): 50 µg/mL
RWVSMLLRRGSRVGYVIARR [Hit37],–,–,–,–,–,–,–,–,MIC values against MRSA 326 (S. aureus): 100 µg/mL; MIC values against S.aureus ATCC 29213 (S. aureus): 100 µg/mL; MIC values against B.cereus ATCC (B. cereus): >100 µg/mL
RWVSMLLRRGSRWVSMLLRR [Hit1],–,–,–,–,–,–,–,–,MIC (S. aureus): 3 µg/mL; MIC in presence of 50% FBS (S. aureus): 25 µg/mL; MIC values against MRSA 326 (S. aureus): 6 µg/mL; HD50 (concentration at which 50% of red blood cells are lysed) (human erythrocytes): 25 to 50 µg/mL; MIC values against Corynebacterium (Corynebacterium): 3 µg/mL; MIC values against B.cereus ATCC (B. cereus): 6 µg/mL
b~DVIIWSLGNR~b [Complimentary charge],–,–,–,–,–,–,–,–,"specificity of binding to β-gal versus serum proteins (β-Gal; competitive PepBlot, 7% clinical serum in adjacent lane, 25 nM, 15 min): does not cross react with proteins in the serum"
b~RLAVVLQR [Tango 1],–,–,–,–,–,–,–,–,binding to β-Gal on blot (β-Gal): weaker binding
b~RPITVNPPFR [Off-Target],–,–,–,–,–,–,–,–,binding to β-Gal on blot (β-Gal): no interaction
b~RVIIWSLGNR [Tango 2],–,–,–,–,–,–,–,–,binding to β-Gal on blot (β-Gal): strong affinity to the β-Gal
b~RVIPWSLGNR [Tango 2 Mut_2],–,–,–,–,–,–,–,–,binding to β-Gal on blot (β-Gal): still bind efficiently to β-Gal
b~RVPIWSLGNR [Tango 2 Mut_1],–,–,–,–,–,–,–,–,binding to β-Gal on blot (β-Gal): still bind efficiently to β-Gal
